Experimental data reported in patent EP4596574A1, “GLP-1/GCG/GIP TRIPLE-RECEPTOR AGONIST AND USE THEREOF” (Sunshine Lake Pharma Co., Ltd., priority 2022, dated 2024).
pEC50: −log10 of the molar value. “Also recorded” adds a separate entry of the source. Marks after values point to notes of the source that are not given here.

What was measured:
GCGR = biological target: T1, GCGR (Homo sapiens, UniProt P47871); experiment: In vitro cell activity, cAMP production in HEK293 cells expressing GCGR; type: cell-based
T1 construct: expressed in transfected cells; host or cells: HEK293 (HEK293-GCGR)
Method in brief: (§1)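 Assay format: cells at 4×10^5 cells/mL, cAMP sensed by d2/cryptate FRET pair, dual-wavelength read at 665 and 620 nm. Potency expressed as EC50 from nonlinear fitting.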

GIPR = biological target: T2, GIPR (Homo sapiens, UniProt P48546); experiment: In vitro cell activity, cAMP production in HEK293 cells expressing GIPR; type: cell-based
T2 construct: expressed in transfected cells; host or cells: HEK293 (HEK293-GIPR)
T2 sequence (P48546 22-466): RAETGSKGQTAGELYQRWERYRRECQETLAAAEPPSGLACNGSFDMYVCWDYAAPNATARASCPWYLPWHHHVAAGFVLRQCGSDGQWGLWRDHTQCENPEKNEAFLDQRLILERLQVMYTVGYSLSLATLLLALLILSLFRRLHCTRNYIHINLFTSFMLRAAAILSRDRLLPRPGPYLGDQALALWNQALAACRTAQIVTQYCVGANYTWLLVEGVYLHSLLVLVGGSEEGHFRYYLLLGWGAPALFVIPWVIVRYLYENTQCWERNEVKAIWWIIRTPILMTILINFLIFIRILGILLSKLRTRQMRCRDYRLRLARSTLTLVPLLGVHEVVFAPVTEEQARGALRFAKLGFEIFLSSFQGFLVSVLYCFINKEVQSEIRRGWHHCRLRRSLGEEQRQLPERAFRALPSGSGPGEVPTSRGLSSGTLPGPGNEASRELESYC
Method in brief: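 cAMP accumulation is quantified by homogeneous TR-FRET (cAMP-d2 plus anti-cAMP cryptate) in GIPR-expressing HEK293 cells seeded from a 4×10^5 cells/mL suspension and treated with compound. The signal ratio is plotted against concentration and fitted to a four-parameter curve to give EC50.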

[1] = In vivo efficacy evaluation in db/db mouse model (blood glucose); set-up: species or system db/db mice
Method: Blood glucose was tested before each administration.

GLP-1R = biological target: T3, GLP-1R (Homo sapiens, UniProt P43220); experiment: In vitro cell activity, cAMP production in HEK293 cells expressing GLP-1R; type: cell-based
T3 construct: expressed in transfected cells; host or cells: HEK293 (HEK293-GLP-1R)
Method in brief: as §1

[2] = Long-term repeated administration in diet-induced obese C57BL/6 mice (DIO); type: in vivo, C57/BL6 mice
[3] = 10 nmol/kg s.c. once every 3 days, D7
[4] = 10 nmol/kg s.c. once every 3 days, D10
[5] = 10 nmol/kg s.c. once every 3 days, D13
[6] = 10 nmol/kg s.c. once every 3 days, D16
[7] = 10 nmol/kg s.c. once every 3 days, D19
[8] = 10 nmol/kg s.c. once every 3 days, D22
[9] = 10 nmol/kg s.c. once every 3 days, D25
[10] = 10 nmol/kg s.c. once every 3 days, D28
[11] = after 4 weeks of administration
[12] = after 4 weeks of administration, same dose
[13] = long-term administration 10 nmol/kg, 72 h after the last administration
[14] = long-term administration 10 nmol/kg, blood biochemical index

T3 sequence (P43220 24-463, species assumed): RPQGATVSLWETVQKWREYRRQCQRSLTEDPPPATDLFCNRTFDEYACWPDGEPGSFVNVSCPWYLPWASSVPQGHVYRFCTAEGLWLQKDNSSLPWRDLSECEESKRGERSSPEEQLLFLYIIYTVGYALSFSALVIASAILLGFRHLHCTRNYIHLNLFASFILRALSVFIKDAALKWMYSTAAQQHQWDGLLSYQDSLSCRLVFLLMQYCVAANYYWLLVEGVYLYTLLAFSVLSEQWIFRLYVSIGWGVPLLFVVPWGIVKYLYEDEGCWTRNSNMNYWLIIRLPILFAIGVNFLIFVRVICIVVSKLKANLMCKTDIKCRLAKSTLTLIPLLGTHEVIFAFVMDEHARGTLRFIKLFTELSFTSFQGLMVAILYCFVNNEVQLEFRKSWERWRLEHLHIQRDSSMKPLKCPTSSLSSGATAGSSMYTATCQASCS
T1 sequence (P47871 26-477, species assumed): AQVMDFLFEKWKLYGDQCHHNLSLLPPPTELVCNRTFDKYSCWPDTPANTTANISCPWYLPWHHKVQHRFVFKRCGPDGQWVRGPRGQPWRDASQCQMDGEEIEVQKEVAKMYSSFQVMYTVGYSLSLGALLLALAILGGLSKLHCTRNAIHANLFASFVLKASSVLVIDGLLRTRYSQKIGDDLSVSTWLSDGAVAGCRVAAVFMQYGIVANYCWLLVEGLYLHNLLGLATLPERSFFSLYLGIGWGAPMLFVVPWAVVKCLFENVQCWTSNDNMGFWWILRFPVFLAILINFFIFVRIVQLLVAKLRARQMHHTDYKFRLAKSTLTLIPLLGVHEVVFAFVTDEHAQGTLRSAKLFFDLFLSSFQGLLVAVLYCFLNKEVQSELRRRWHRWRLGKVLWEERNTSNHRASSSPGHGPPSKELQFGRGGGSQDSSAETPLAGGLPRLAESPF

With CC[C@H](C)[C@H](NC(=O)[C@H](Cc1ccccc1)NC(=O)[C@H](C)NC(=O)[C@H](CCCNC(=N)N)NC(=O)[C@H](CCC(N)=O)NC(=O)[C@H](CCCNC(=N)N)NC(=O)[C@H](CCCCNC(=O)COCCOCCNC(=O)CC[C@H](NC(=O)CCCCCCCCCCCCCCCCCCC(=O)O)C(=O)O)NC(=O)[C@H](CCC(=O)O)NC(=O)[C@H](CC(=O)O)NC(=O)[C@H](CC(C)C)NC(=O)[C@H](CC(C)C)NC(=O)[C@@H](NC(=O)[C@H](CO)NC(=O)[C@H](Cc1ccc(O)cc1)NC(=O)[C@H](CC(=O)O)NC(=O)[C@H](CO)NC(=O)[C@@H](NC(=O)[C@](C)(Cc1ccccc1F)NC(=O)[C@@H](NC(=O)CNC(=O)[C@H](CCC(N)=O)NC(=O)C(C)(C)NC(=O)[C@@H](N)Cc1ccc(O)cc1)[C@@H](C)O)[C@@H](C)O)[C@@H](C)CC)C(=O)N[C@@H](CCC(=O)O)C(=O)N[C@@H](Cc1ccc(O)cc1)C(=O)N[C@@H](CC(C)C)C(=O)N[C@@H](CC(C)C)C(=O)N[C@@H](C)C(=O)NCC(=O)NCC(=O)N1CCC[C@H]1C(=O)N[C@@H](CO)C(=O)N[C@@H](CO)C(=O)NCC(=O)N[C@@H](C)C(=O)N1CCC[C@H]1C(=O)N1CCC[C@H]1C(=O)N1CCC[C@H]1C(=O)N[C@@H](CO)C(=O)O [HEC-PT86] the pEC50 (GCGR) was 9.09, the pEC50 (GIPR) was 9.95 and the “blood glucose after administration” value ([1]; db/db mice, 10 nmol/kg) was “significantly reduce blood glucose”. The “Random blood glucose (mM) D0” value ([1]; db/db mice, 10 nmol/kg s.c. once every three days, D0 (before first dose)) was 27.3 ± 3.6 mM, the “Random blood glucose (mM) D3” value ([1]; db/db mice, 10 nmol/kg s.c. once every three days, D3) was 9.2 ± 5.6 mM and the “Random blood glucose (mM) D4” value ([1]; db/db mice, 10 nmol/kg s.c. once every three days, D4) was 16.2 ± 6.5 mM. For the same molecule, the “Random blood glucose (mM) D5” value ([1]; db/db mice, 10 nmol/kg s.c. once every three days, D5) was 18.8 ± 5.7 mM, the “Random blood glucose (mM) D6” value ([1]; db/db mice, 10 nmol/kg s.c. once every three days, D6) was 23.0 ± 3.7 mM and the “Random blood glucose (mM) D7” value ([1]; db/db mice, 10 nmol/kg s.c. once every three days, D7) was 21.0 ± 4.4 mM. For the same molecule, the “Random blood glucose (mM) D10” value ([1]; db/db mice, 10 nmol/kg s.c. once every three days, D10) was 9.1 ± 2.3 mM, the “Random blood glucose (mM) D13” value ([1]; db/db mice, 10 nmol/kg s.c. once every three days, D13) was 9.6 ± 3.2 mM and the “Random blood glucose (mM) D16” value ([1]; db/db mice, 10 nmol/kg s.c. once every three days, D16) was 8.4 ± 1.7 mM. For the same molecule, the “Random blood glucose (mM) D19” value ([1]; db/db mice, 10 nmol/kg s.c. once every three days, D19) was 12.0 ± 3.3 mM, the “Random blood glucose (mM) D22” value ([1]; db/db mice, 10 nmol/kg s.c. once every three days, D22) was 11.6 ± 3.8 mM and the “Random blood glucose (mM) D25” value ([1]; db/db mice, 10 nmol/kg s.c. once every three days, D25) was 13.1±3.3^a mM. The “Random blood glucose (mM) 6 h” value ([1]; db/db mice, 10 nmol/kg s.c., 6 h) was 15.4 ± 4.4 mM, the “Random blood glucose (mM) 24 h” value ([1]; db/db mice, 10 nmol/kg s.c., 24 h) was 6.5 ± 1.4 mM and the “Random blood glucose (mM) 48 h” value ([1]; db/db mice, 10 nmol/kg s.c., 48 h) was 7.9 ± 2.8 mM. For the same molecule, the “time at which blood glucose levels reached the lowest level” value ([1]; db/db mice, 10 nmol/kg, after administration) was “about 24 hours”, the “blood glucose lowering after long-term administration compared with LY3298176” value ([1]; db/db mice, long-term repeated administration) was “better than that of the LY3298176 group; also recorded: better hypoglycemic effect than LY3298176” and the “blood glucose reducing effect after administration compared with LY3298176” value ([1]; db/db mice, same dose 10 nmol/kg) was “slightly better than the positive control LY3298176”. The “blood glucose level after long-term administration” value ([1]; type II diabetes model db/db mice) was “significantly improve the blood glucose level”, the pEC50 (GLP-1R) was 9.80 and the “Cumulative food intake (g/pcs) D7” value [2, 3] was 8.4 g/pcs. For the same molecule, the “Weight gain rate (%) D7” value [2, 3] was -17.8±5.8%, the “Cumulative food intake (g/pcs) D10” value [2, 4] was 11.6 g/pcs and the “Weight gain rate (%) D10” value [2, 4] was -23.5±6.6%. The “Cumulative food intake (g/each) D13” value [2, 5] was 14.5 g/each, the “Weight gain rate (%) D13” value [2, 5] was -26.1±7.2% and the “Cumulative food intake (g/each) D16” value [2, 6] was 19.3 g/each. For the same molecule, the “Weight gain rate (%) D16” value [2, 6] was -27.9±7.6%, the “Cumulative food intake (g/each) D19” value [2, 7] was 24.5 g/each and the “Weight gain rate (%) D19” value [2, 7] was -29.2±8.1%. The “Cumulative food intake (g/each) D22” value [2, 8] was 30.4 g/each, the “Weight gain rate (%) D22” value [2, 8] was -29.3±7.2% and the “Cumulative food intake (g/each) D25” value [2, 9] was 36.6 g/each. For the same molecule, the “Weight gain rate (%) D25” value [2, 9] was -30.6±7.0%, the “Cumulative food intake (g/each) D28” value [2, 10] was 43.4 g/each and the “Weight gain rate (%) D28” value [2, 10] was -31.2±6.4%. The “Cumulative food intake (g/each) D30” value ([2]; 10 nmol/kg s.c. once every 3 days, D30) was 47.0^a g/each, the “Weight gain rate (%) D31” value ([2]; 10 nmol/kg s.c. once every 3 days, D31) was -30.9±6.4^a % and the “Cumulative food intake (g/pcs) D0” value ([2]; 10 nmol/kg s.c., D0) was 2.5 g/pcs. The “Weight gain rate (%) D0” value ([2]; 10 nmol/kg s.c., D0) was 0.0±0.0%, the “Cumulative food intake (g/pcs) D1” value ([2]; 10 nmol/kg s.c., D1) was 2.9 g/pcs and the “Weight gain rate (%) D1” value ([2]; 10 nmol/kg s.c., D1) was -6.0±0.8%. For the same molecule, the “Cumulative food intake (g/pcs) D2” value ([2]; 10 nmol/kg s.c., D2) was 3.5 g/pcs, the “Weight gain rate (%) D2” value ([2]; 10 nmol/kg s.c., D2) was -8.8±1.4% and the “Cumulative food intake (g/pcs) D3” value ([2]; 10 nmol/kg s.c., D3) was 4.5 g/pcs. The “Weight gain rate (%) D3” value ([2]; 10 nmol/kg s.c., D3) was -9.9±1.6%, the “Cumulative food intake (g/pcs) D4” value ([2]; 10 nmol/kg s.c., D4) was 5.8 g/pcs and the “Weight gain rate (%) D4” value ([2]; 10 nmol/kg s.c., D4) was -10.6±2.9%. The “liver function and blood lipids of DIO mice” value [2, 11] was “significantly improved the liver function and blood lipids”, the “weight loss and food intake inhibition effects compared with Semaglutide” value [2, 11] was “superior to the positive drug Semaglutide” and the “food intake inhibition effect compared with LY3298176” value [2, 12] was “comparable to those of the same dose of the positive drug LY3298176”. The “weight loss effect compared with LY3298176” value [2, 12] was “comparable to those of the same dose of the positive drug LY3298176”, the Liver index/% [2, 13] was 2.7±0.0^a % and the Liver/g [2, 13] was 0.9±0.1^a g. For the same molecule, the Weight/g [2, 13] was 32.3±4.4^a g, the “ALT (U/L)” value [2, 14] was 27.8±9.4^a U/L and the “AST (U/L)” value [2, 14] was 108.6±26.3^a U/L. The “CHOL (mmol/L)” value [2, 14] was 3.5±0.7^a mmol/L and the “TRIGL (mmol/L)” value [2, 14] was 0.6±0.1^a mmol/L.
